Source: patent US11833133B2, “Solid oral pharmaceutical composition” (Orient Pharma Co., Ltd., priority 2020, dated 2023)

What was measured:
[1] = Long term stability of composition of pitavastatin calcium and ezetimibe (25° C./60% RH); assay type: physicochemical; settings: Example 5 composition, Alu-alu blisters
Experimental: The composition of pitavastatin calcium and ezetimibe prepared in Example 5 of the present disclosure were packed in Alu-alu blisters and stored under long term stability (25° C./60% RH). The assay of pitavastatin calcium and ezetimibe as well as the impurities were measured.

[2] = system: nephrectomized rats fed high-cholesterol; settings: cited from earlier work
[3] = Dissolution test, USP apparatus II (Paddle Method) with sinkers, HPLC; assay type: physicochemical
Experimental: Dissolution Methods and Assay
Dissolution medium such as 0.1N HCl, phosphate buffer (pH 4.5) and phosphate buffer (pH 6.8) were prepared following USP Method. 0.3% Tween 80 was added into the medium to help solubilize the active ingredients. Dissolution conditions were summarized as in the following. Dissolution samples were analyzed by HPLC method.
Apparatus: USP apparatus II (Paddle Method) with sinkers.
Medium: 0.1N HCl, Phosphate Buffer phosphate buffer (pH 4.5) or Phosphate Buffer phosphate buffer (pH 6.8).
Filter: 10 μm HDPE full flow filter tips

[4] = system: chronic kidney disease patients; settings: ezetimibe 10 mg/day co-administered with pitavastatin calcium 2 mg/day; cited from earlier work
[5] = Example 1 single layered tablet, 5 min
[6] = Example 1 single layered tablet, 10 min
[7] = Example 1 single layered tablet, 15 min
[8] = Example 1 single layered tablet, 30 min
[9] = Example 1 single layered tablet, 45 min
[10] = Example 2 double layered tablet, 5 min
[11] = Example 2 double layered tablet, 10 min
[12] = Example 2 double layered tablet, 15 min
[13] = Example 2 double layered tablet, 30 min
[14] = Example 2 double layered tablet, 45 min
[15] = pellets in one capsule (Example 5), 5 min
[16] = pellets in one capsule (Example 5), 10 min
[17] = pellets in one capsule (Example 5), 15 min
[18] = pellets in one capsule (Example 5), 20 min
[19] = pellets in one capsule (Example 5), 30 min
[20] = pellets in one capsule (Example 5), 45 min

O=C1[C@H](CC[C@H](O)c2ccc(F)cc2)[C@@H](c2ccc(O)cc2)N1c1ccc(F)cc1 [Ezetimibe, ezetimibe]
Assay (%) ([1]; 3 Months): 99.5%
Impurities (%), Major ([1]; 3 Months): 0.06%
Impurities (%), Total ([1]; 3 Months): 0.06%
Assay (%) ([1]; 6 Months): 101%
Impurities (%), Major ([1]; 6 Months): 0.06%
Impurities (%), Total ([1]; 6 Months): 0.06%
Assay (%) ([1]; 9 Months): 102.9%
Impurities (%), Major ([1]; 9 Months): 0.06%
Impurities (%), Total ([1]; 9 Months): 0.06%
Assay (%) ([1]; 12 Months): 99.7%
Impurities (%), Major ([1]; 12 Months): 0.06%
Impurities (%), Total ([1]; 12 Months): 0.06%
Assay (%) ([1]; Initial): 100%
Impurities (%), Major ([1]; Initial): 0.06%
Impurities (%), Total ([1]; Initial): 0.06%
Kidney dysfunction / kidney damage [2]: confers renoprotective effects
% Released into 0.1 N HCl with 0.3% Tween 80 at sampling time (min) [3, 5]: 56%
% Released into Phosphate Buffer (pH 6.8) with 0.3% Tween 80 at sampling time (min) [3, 5]: 54%
% Released into 0.1 N HCl with 0.3% Tween 80 at sampling time (min) [3, 6]: 70%
% Released into Phosphate Buffer (pH 6.8) with 0.3% Tween 80 at sampling time (min) [3, 6]: 77%
% Released into 0.1 N HCl with 0.3% Tween 80 at sampling time (min) [3, 7]: 77%
% Released into Phosphate Buffer (pH 6.8) with 0.3% Tween 80 at sampling time (min) [3, 7]: 86%
% Released into 0.1 N HCl with 0.3% Tween 80 at sampling time (min) [3, 8]: 86%
% Released into Phosphate Buffer (pH 6.8) with 0.3% Tween 80 at sampling time (min) [3, 8]: 94%
% Released into 0.1 N HCl with 0.3% Tween 80 at sampling time (min) [3, 9]: 91%
% Released into Phosphate Buffer (pH 6.8) with 0.3% Tween 80 at sampling time (min) [3, 9]: 96%
% Released into 0.1 N HCl with 0.3% Tween 80 at sampling time (min) [3, 10]: 30%
% Released into Phosphate Buffer (pH 6.8) with 0.3% Tween 80 at sampling time (min) [3, 10]: 42%
% Released into 0.1 N HCl with 0.3% Tween 80 at sampling time (min) [3, 11]: 56%
% Released into Phosphate Buffer (pH 6.8) with 0.3% Tween 80 at sampling time (min) [3, 11]: 72%
% Released into 0.1 N HCl with 0.3% Tween 80 at sampling time (min) [3, 12]: 67%
% Released into Phosphate Buffer (pH 6.8) with 0.3% Tween 80 at sampling time (min) [3, 12]: 80%
% Released into 0.1 N HCl with 0.3% Tween 80 at sampling time (min) [3, 13]: 79%
% Released into Phosphate Buffer (pH 6.8) with 0.3% Tween 80 at sampling time (min) [3, 13]: 88%
% Released into 0.1 N HCl with 0.3% Tween 80 at sampling time (min) [3, 14]: 83%
% Released into Phosphate Buffer (pH 6.8) with 0.3% Tween 80 at sampling time (min) [3, 14]: 91%
% Released into 0.1 N HCl with 0.3% Tween 80 at sampling time (min) [3, 15]: 71%
% Released into Phosphate Buffer (pH 4.5) with 0.3% Tween 80 at sampling time (min) [3, 15]: 64%
% Released into Phosphate Buffer (pH 6.8) with 0.3% Tween 80 at sampling time (min) [3, 15]: 69%
% Released into 0.1 N HCl with 0.3% Tween 80 at sampling time (min) [3, 16]: 95%
% Released into Phosphate Buffer (pH 4.5) with 0.3% Tween 80 at sampling time (min) [3, 16]: 99%
% Released into Phosphate Buffer (pH 6.8) with 0.3% Tween 80 at sampling time (min) [3, 16]: 96%
% Released into 0.1 N HCl with 0.3% Tween 80 at sampling time (min) [3, 17]: 99%
% Released into Phosphate Buffer (pH 4.5) with 0.3% Tween 80 at sampling time (min) [3, 17]: 103%
% Released into Phosphate Buffer (pH 6.8) with 0.3% Tween 80 at sampling time (min) [3, 17]: 102%
% Released into 0.1 N HCl with 0.3% Tween 80 at sampling time (min) [3, 18]: 100%
% Released into Phosphate Buffer (pH 4.5) with 0.3% Tween 80 at sampling time (min) [3, 18]: 104%
% Released into Phosphate Buffer (pH 6.8) with 0.3% Tween 80 at sampling time (min) [3, 18]: 103%
% Released into 0.1 N HCl with 0.3% Tween 80 at sampling time (min) [3, 19]: 101%
% Released into Phosphate Buffer (pH 4.5) with 0.3% Tween 80 at sampling time (min) [3, 19]: 105%
% Released into Phosphate Buffer (pH 6.8) with 0.3% Tween 80 at sampling time (min) [3, 19]: 104%
% Released into 0.1 N HCl with 0.3% Tween 80 at sampling time (min) [3, 20]: 101%
% Released into Phosphate Buffer (pH 4.5) with 0.3% Tween 80 at sampling time (min) [3, 20]: 105%
% Released into Phosphate Buffer (pH 6.8) with 0.3% Tween 80 at sampling time (min) [3, 20]: 104%
Proteinuria-lowering effects [4]: enhances proteinuria-lowering effects of pitavastatin calcium

O=C([O-])C[C@H](O)C[C@H](O)/C=C/c1c(C2CC2)nc2ccccc2c1-c1ccc(F)cc1.O=C([O-])C[C@H](O)C[C@H](O)/C=C/c1c(C2CC2)nc2ccccc2c1-c1ccc(F)cc1.[Ca+2] [Pitavastatin Ca, pitavastatin calcium]
Assay (%) ([1]; 3 Months): 96.4%
Impurities (%), Major ([1]; 3 Months): 0.03%
Impurities (%), Total ([1]; 3 Months): 0.03%
Assay (%) ([1]; 6 Months): 97%
Impurities (%), Major ([1]; 6 Months): 0.09%
Impurities (%), Total ([1]; 6 Months): 0.09%
Assay (%) ([1]; 9 Months): 95%
Impurities (%), Major ([1]; 9 Months): 0.08%
Impurities (%), Total ([1]; 9 Months): 0.13%
Assay (%) ([1]; 12 Months): 96.5%
Impurities (%), Major ([1]; 12 Months): 0.05%
Impurities (%), Total ([1]; 12 Months): 0.05%
Assay (%) ([1]; Initial): 98.2%
Impurities (%), Major ([1]; Initial): 0.02%
Impurities (%), Total ([1]; Initial): 0.02%
Kidney dysfunction / kidney damage [2]: additively ameliorates kidney damage
% Released into 0.1 N HCl with 0.3% Tween 80 at sampling time (min) [3, 5]: 79%
% Released into Phosphate Buffer (pH 6.8) with 0.3% Tween 80 at sampling time (min) [3, 5]: 69%
% Released into 0.1 N HCl with 0.3% Tween 80 at sampling time (min) [3, 6]: 84%
% Released into Phosphate Buffer (pH 6.8) with 0.3% Tween 80 at sampling time (min) [3, 6]: 90%
% Released into 0.1 N HCl with 0.3% Tween 80 at sampling time (min) [3, 7]: 86%
% Released into Phosphate Buffer (pH 6.8) with 0.3% Tween 80 at sampling time (min) [3, 7]: 95%
% Released into 0.1 N HCl with 0.3% Tween 80 at sampling time (min) [3, 8]: 89%
% Released into Phosphate Buffer (pH 6.8) with 0.3% Tween 80 at sampling time (min) [3, 8]: 97%
% Released into 0.1 N HCl with 0.3% Tween 80 at sampling time (min) [3, 9]: 90%
% Released into Phosphate Buffer (pH 6.8) with 0.3% Tween 80 at sampling time (min) [3, 9]: 98%
% Released into 0.1 N HCl with 0.3% Tween 80 at sampling time (min) [3, 10]: 81%
% Released into Phosphate Buffer (pH 6.8) with 0.3% Tween 80 at sampling time (min) [3, 10]: 90%
% Released into 0.1 N HCl with 0.3% Tween 80 at sampling time (min) [3, 11]: 87%
% Released into Phosphate Buffer (pH 6.8) with 0.3% Tween 80 at sampling time (min) [3, 11]: 96%
% Released into 0.1 N HCl with 0.3% Tween 80 at sampling time (min) [3, 12]: 89%
% Released into Phosphate Buffer (pH 6.8) with 0.3% Tween 80 at sampling time (min) [3, 12]: 97%
% Released into 0.1 N HCl with 0.3% Tween 80 at sampling time (min) [3, 13]: 86%
% Released into Phosphate Buffer (pH 6.8) with 0.3% Tween 80 at sampling time (min) [3, 13]: 99%
% Released into 0.1 N HCl with 0.3% Tween 80 at sampling time (min) [3, 14]: 89%
% Released into Phosphate Buffer (pH 6.8) with 0.3% Tween 80 at sampling time (min) [3, 14]: 100%
% Released into 0.1 N HCl with 0.3% Tween 80 at sampling time (min) [3, 15]: 90%
% Released into Phosphate Buffer (pH 4.5) with 0.3% Tween 80 at sampling time (min) [3, 15]: 82%
% Released into Phosphate Buffer (pH 6.8) with 0.3% Tween 80 at sampling time (min) [3, 15]: 81%
% Released into 0.1 N HCl with 0.3% Tween 80 at sampling time (min) [3, 16]: 99%
% Released into Phosphate Buffer (pH 4.5) with 0.3% Tween 80 at sampling time (min) [3, 16]: 100%
% Released into Phosphate Buffer (pH 6.8) with 0.3% Tween 80 at sampling time (min) [3, 16]: 98%
% Released into 0.1 N HCl with 0.3% Tween 80 at sampling time (min) [3, 17]: 100%
% Released into Phosphate Buffer (pH 4.5) with 0.3% Tween 80 at sampling time (min) [3, 17]: 102%
% Released into Phosphate Buffer (pH 6.8) with 0.3% Tween 80 at sampling time (min) [3, 17]: 102%
% Released into 0.1 N HCl with 0.3% Tween 80 at sampling time (min) [3, 18]: 100%
% Released into Phosphate Buffer (pH 4.5) with 0.3% Tween 80 at sampling time (min) [3, 18]: 102%
% Released into Phosphate Buffer (pH 6.8) with 0.3% Tween 80 at sampling time (min) [3, 18]: 102%
% Released into 0.1 N HCl with 0.3% Tween 80 at sampling time (min) [3, 19]: 100%
% Released into Phosphate Buffer (pH 4.5) with 0.3% Tween 80 at sampling time (min) [3, 19]: 102%
% Released into Phosphate Buffer (pH 6.8) with 0.3% Tween 80 at sampling time (min) [3, 19]: 102%
% Released into 0.1 N HCl with 0.3% Tween 80 at sampling time (min) [3, 20]: 99%
% Released into Phosphate Buffer (pH 4.5) with 0.3% Tween 80 at sampling time (min) [3, 20]: 102%
% Released into Phosphate Buffer (pH 6.8) with 0.3% Tween 80 at sampling time (min) [3, 20]: 102%
